In PubChem BioAssay AID2060512 (Molecular Pharmacology Branch, DTP, NCI, 2025):
Where “and” joins values, the source holds several entries; their conditions need not be identical. Equal values may be shown once.

Tested on: 186277-243-T-J2-PDC complex spheroid viability
Experiment: Anticancer human tumor 186277-243-T-J2-PDC patient-derived colon adenocarcinoma cell line growth inhibition [GQUAD]
Conditions: for viability, T/C: stronger effect = lower value
Excerpt: DNA G-quadruplex Stabilizer Agents in Combinations in Complex Spheroids
A high-throughput screen of multi-cell type tumor spheroids was designed to identify active combinations of DNA G-quadruplex stabilizer agents and targeted small molecules. Complex spheroids include a stromal component modeled by human endothelial cells (HUVEC) and fibroblasts modeled by human mesenchymal stem cells (MSCs). The concentration ranges selected for each drug and investigational agent were based upon clinically achievable concentrations if the clinical Cmax of the agent was known.
Compounds. The drugs and investigational agents: pidnarulex (CX-5461; NSC782164), APTO-253 (NSC789042), BRACO-19 (NSC847499), peposertib (NSC802822), ceralasertib (NSC780249), elimusertib (NSC800525), camonsertib (NSC841442), AZD-1390 (NSC803789), olaparib (NSC753686), talazoparib (NSC767125), ART-558 (NSC835418), sotorasib (NSC818433), MRTX-1133 (NSC836407), SN-38 (NSC673596), topotecan (NSC609699), etoposide (NSC141540), doxorubicin (NSC123127), gemcitabine (NSC613327), 5-fluorouracil (NSC19893), paclitaxel (NSC125973), vemurafenib (NSC761431), panobinostat (NSC761190), R-306465 (JNJ-16241199; NSC773264), adavosertib (NSC754352), TP-3654 (NSC805149), carboplatin (NSC241240), KSQ-4279 (NSC840948), and staurosporine (NSC755774) were obtained from the National Cancer Institute (NCI) Developmental Therapeutics Program Chemical Repository (34). The FDA-approved anticancer drug set is available from the NCI Developmental Therapeutics Program. […] The stock solutions were prepared in dimethyl sulfoxide (DMSO, Sigma-Aldrich, St. Louis, MO, cat. D2650) at 800-fold the tested concentration and stored at -70 degrees C prior to their use. All drugs and investigational agents were tested over a range starting from a high concentration at or near the clinical Cmax and decreasing in half-log increments. If the clinical Cmax for an agent had not been determined, the highest concentration tested was 10 microM.
2.3 Cell Culture. All cells were maintained in an incubator at 37 degrees C and 5% CO2 with 95% humidity. The PDC lines were cultured according to standard operating procedures established by the NCI PDMR. All PDCs were thawed and cultured in Matrigel-coated flasks prepared with a working solution of 1X Ham's F-12 nutrient mix, without supplementation (Invitrogen, cat. 11765054), 100 U/mL penicillin-streptomycin (Invitrogen, cat. 15140122), and 2.5% Matrigel (Corning Inc., cat. 354248) for the first three passages. The 857933-349-R-J2-PDC line was cultured in 6C/Colon 1B media, which includes advanced DMEM/F-12 (Thermo Fisher Scientific, cat. 12634028), 10 mM HEPES (Thermo Fisher Scientific, cat. 15630080), 1X GlutaMAX supplement (Thermo Fisher Scientific, cat. 35050061), 0.1 mg/mL primocin (InvivoGen, cat. ant-pm-2), 10% defined fetal bovine serum, heat inactivated (HyClone Laboratories Inc., cat. SH30070.03HI), 50% L-WRN conditioned media (ATCC, cat. CRL-3276), 1.25 mM N-Acetyl-L-cysteine (Sigma-Aldrich, cat. A9165), 10 mM nicotinamide (Sigma-Aldrich, cat. N0636), 1X B-27 supplement (Thermo Fisher Scientific, cat. 17504044), 1X N-2 supplement (Thermo Fisher Scientific, cat. 17502048), 10 microM Y-27632 dihydrochloride (Tocris Bioscience, cat. 1254), and 50 ng/mL human EGF recombinant protein (Thermo Fisher Scientific, cat. PHG0311). The 485176-168-R4-J1-PDC line was cultured in Panc media, which includes all 6C/Colon 1B media components plus 100 ng/mL human FGF-10 (Thermo Fisher Scientific, cat. 100-26), 500 nM SB-431542 (Selleckchem, cat. S1067), and gastrin (Tocris, cat. 3006).
[…]

[1] = curve of first compound, second compound 0.0316 µM
[2] = curve of first compound, second compound 0.1 µM
[3] = curve of first compound, second compound 0.316 µM
[4] = curve of first compound, second compound 1 µM
[5] = curve of first compound, second compound 3.16 µM
[6] = curve of first compound, second compound 10 µM
[7] = second compound 0.0316 µM, first compound 0.0316 µM
[8] = second compound 0.0316 µM, first compound 0.1 µM
[9] = second compound 0.0316 µM, first compound 0.316 µM
[10] = second compound 0.0316 µM, first compound 1 µM
[11] = second compound 0.0316 µM, first compound 3.16 µM
[12] = second compound 0.0316 µM, first compound 10 µM
[13] = second compound 0.1 µM, first compound 0.0316 µM
[14] = second compound 0.1 µM, first compound 0.1 µM
[15] = second compound 0.1 µM, first compound 0.316 µM
[16] = second compound 0.1 µM, first compound 1 µM
[17] = second compound 0.1 µM, first compound 3.16 µM
[18] = second compound 0.1 µM, first compound 10 µM
[19] = second compound 0.316 µM, first compound 0.0316 µM
[20] = second compound 0.316 µM, first compound 0.1 µM
[21] = second compound 0.316 µM, first compound 0.316 µM
[22] = second compound 0.316 µM, first compound 1 µM
[23] = second compound 0.316 µM, first compound 3.16 µM
[24] = second compound 0.316 µM, first compound 10 µM
[25] = second compound 1 µM, first compound 0.0316 µM
[26] = second compound 1 µM, first compound 0.1 µM
[27] = second compound 1 µM, first compound 0.316 µM
[28] = second compound 1 µM, first compound 1 µM
[29] = second compound 1 µM, first compound 3.16 µM
[30] = second compound 1 µM, first compound 10 µM
[31] = second compound 3.16 µM, first compound 0.0316 µM
[32] = second compound 3.16 µM, first compound 0.1 µM
[33] = second compound 3.16 µM, first compound 0.316 µM
[34] = second compound 3.16 µM, first compound 1 µM
[35] = second compound 3.16 µM, first compound 3.16 µM
[36] = second compound 3.16 µM, first compound 10 µM
[37] = second compound 10 µM, first compound 0.0316 µM
[38] = second compound 10 µM, first compound 0.1 µM
[39] = second compound 10 µM, first compound 0.316 µM
[40] = second compound 10 µM, first compound 1 µM
[41] = second compound 10 µM, first compound 3.16 µM
[42] = second compound 10 µM, first compound 10 µM
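Also: spheroids exposed to drugs for 7 days.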
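For viability, T/C in this document: 100% = DMSO vehicle control viability.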

## COc1cc(C2c3cc4c(cc3C(OC3OC5COC(C)OC5C(O)C3O)C3COC(=O)C23)OCO4)cc(OC)c1O (stereo not given)
Compound 0.0316 µM
  viability, T/C: 103% and 110% and 100%
Compound 0.1 µM
  viability, T/C: 100% and 101% and 85.4%
Compound 0.316 µM
  viability, T/C: 102% and 83.6% and 82.1%
Compound 1 µM
  viability, T/C: 72.1% and 50.7% and 50%
Compound 3.16 µM
  viability, T/C: 52.7% and 37% and 36.2%
Compound 10 µM
  viability, T/C: 19.4% and 20.9% and 16.9%
Curve of compound
  IC50: 3130 nM and 1270 nM and 1310 nM

## Nc1ccn(C2OC(CO)C(O)C2(F)F)c(=O)n1 (stereo not given)
Compound 0.0316 µM
  viability, T/C: 17% and 8.09% and 31%
Compound 0.1 µM
  viability, T/C: 11.1% and 8.48% and 13.3%
Compound 0.316 µM
  viability, T/C: 11.3% and 9.27% and 10.2%
Compound 1 µM
  viability, T/C: 11.5% and 8.56% and 11.1%
Compound 3.16 µM
  viability, T/C: 12.8% and 8.21% and 8.72%
Compound 10 µM
  viability, T/C: 10.8% and 8.32% and 10.6%
Curve of compound
  IC50: < 31.6 nM

## O=c1[nH]cc(F)c(=O)[nH]1 + CN(C)c1ccc(Nc2c3ccc(NC(=O)CCN4CCCC4)cc3nc3cc(NC(=O)CCN4CCCC4)ccc23)cc1
[1]
  IC50: > 10000 nM
[2]
  IC50: > 10000 nM
[3]
  IC50: > 10000 nM
[4]
  IC50: 7500 nM
[5]
  IC50: 6320 nM
[6]
  IC50: 7040 nM
[7]
  viability, T/C: 99%
[8]
  viability, T/C: 97.1%
[9]
  viability, T/C: 89%
[10]
  viability, T/C: 98.8%
[11]
  viability, T/C: 68.8%
[12]
  viability, T/C: 50.8%
[13]
  viability, T/C: 98.9%
[14]
  viability, T/C: 87%
[15]
  viability, T/C: 102%
[16]
  viability, T/C: 102%
[17]
  viability, T/C: 67.5%
[18]
  viability, T/C: 54.2%
[19]
  viability, T/C: 94.2%
[20]
  viability, T/C: 94.5%
[21]
  viability, T/C: 101%
[22]
  viability, T/C: 93.4%
[23]
  viability, T/C: 62.1%
[24]
  viability, T/C: 51.1%
[25]
  viability, T/C: 87.5%
[26]
  viability, T/C: 91.3%
[27]
  viability, T/C: 98.6%
[28]
  viability, T/C: 112%
[29]
  viability, T/C: 64.7%
[30]
  viability, T/C: 45.1%
[31]
  viability, T/C: 97.2%
[32]
  viability, T/C: 104%
[33]
  viability, T/C: 104%
[34]
  viability, T/C: 101%
[35]
  viability, T/C: 66.5%
[36]
  viability, T/C: 39.1%
[37]
  viability, T/C: 90.9%
[38]
  viability, T/C: 98.4%
[39]
  viability, T/C: 98.5%
[40]
  viability, T/C: 102%
[41]
  viability, T/C: 65.3%
[42]
  viability, T/C: 43.3%

## C=CCn1c(=O)c2cnc(Nc3ccc(N4CCN(C)CC4)cc3)nc2n1-c1cccc(C(C)(C)O)n1
Compound 0.0316 µM
  viability, T/C: 117% and 101% and 93.2%
Compound 0.1 µM
  viability, T/C: 73.4% and 86.2% and 76.1%
Compound 0.316 µM
  viability, T/C: 13.5% and 16.9% and 22.7%
Compound 1 µM
  viability, T/C: 9.12% and 11.3% and 11.6%
Compound 3.16 µM
  viability, T/C: 8.45% and 9.04% and 11%
Compound 10 µM
  viability, T/C: 10.8% and 11.9% and 14.4%
Curve of compound
  IC50: 157 nM and 182 nM and 175 nM

## Nc1ccn(C2OC(CO)C(O)C2(F)F)c(=O)n1 (stereo not given) + Cc1[nH]c2ccc(F)cc2c1-c1nc2c3cccnc3c3ncccc3c2[nH]1
[1]
  IC50: < 31.6 nM
[2]
  IC50: < 31.6 nM
[3]
  IC50: < 31.6 nM
[4]
  IC50: < 31.6 nM
[5]
  IC50: < 31.6 nM
[6]
  IC50: < 31.6 nM
[7]
  viability, T/C: 21.6%
[8]
  viability, T/C: 11.7%
[9]
  viability, T/C: 11.9%
[10]
  viability, T/C: 10.3%
[11]
  viability, T/C: 11.4%
[12]
  viability, T/C: 11.4%
[13]
  viability, T/C: 22.8%
[14]
  viability, T/C: 11.5%
[15]
  viability, T/C: 11.6%
[16]
  viability, T/C: 9.19%
[17]
  viability, T/C: 12.4%
[18]
  viability, T/C: 11.5%
[19]
  viability, T/C: 23.7%
[20]
  viability, T/C: 10.1%
[21]
  viability, T/C: 11.9%
[22]
  viability, T/C: 10.4%
[23]
  viability, T/C: 12.4%
[24]
  viability, T/C: 11.6%
[25]
  viability, T/C: 18.9%
[26]
  viability, T/C: 10.6%
[27]
  viability, T/C: 11.8%
[28]
  viability, T/C: 10.4%
[29]
  viability, T/C: 11.7%
[30]
  viability, T/C: 12.1%
[31]
  viability, T/C: 23.4%
[32]
  viability, T/C: 15.5%
[33]
  viability, T/C: 11.9%
[34]
  viability, T/C: 11.3%
[35]
  viability, T/C: 9.87%
[36]
  viability, T/C: 12.2%
[37]
  viability, T/C: 20.2%
[38]
  viability, T/C: 8.63%
[39]
  viability, T/C: 9.73%
[40]
  viability, T/C: 9.38%
[41]
  viability, T/C: 11.6%
[42]
  viability, T/C: 12.2%
